Results from ChEMBL document CHEMBL3352768, “Synthesis and PGE₂ production inhibition of s-triazine derivatives as a novel scaffold in RAW 264.7 macrophage cells” (Bioorg Med Chem Lett, 2014).

Tests used:
[1] = test system: RAW264.7; test: Inhibition of PGE2 production in LPS-induced mouse RAW264.7 cells at 10 uM; assay type: functional
[2] = test system: RAW264.7; test: Cytotoxicity against mouse RAW264.7 cells assessed as reduction in cell viability by MTT assay; assay type: cell-based
[3] = test system: RAW264.7; test: Inhibition of PGE2 production in LPS-induced mouse RAW264.7 cells; assay type: functional, cell-based
[4] = molecular target: T1, Prostaglandin G/H synthase 2 (Homo sapiens) (UniProt P35354); test: Inhibition of human recombinant COX2 in cell-free system at 10 uM by enzyme immunoassay
T1 sequence (whole entry): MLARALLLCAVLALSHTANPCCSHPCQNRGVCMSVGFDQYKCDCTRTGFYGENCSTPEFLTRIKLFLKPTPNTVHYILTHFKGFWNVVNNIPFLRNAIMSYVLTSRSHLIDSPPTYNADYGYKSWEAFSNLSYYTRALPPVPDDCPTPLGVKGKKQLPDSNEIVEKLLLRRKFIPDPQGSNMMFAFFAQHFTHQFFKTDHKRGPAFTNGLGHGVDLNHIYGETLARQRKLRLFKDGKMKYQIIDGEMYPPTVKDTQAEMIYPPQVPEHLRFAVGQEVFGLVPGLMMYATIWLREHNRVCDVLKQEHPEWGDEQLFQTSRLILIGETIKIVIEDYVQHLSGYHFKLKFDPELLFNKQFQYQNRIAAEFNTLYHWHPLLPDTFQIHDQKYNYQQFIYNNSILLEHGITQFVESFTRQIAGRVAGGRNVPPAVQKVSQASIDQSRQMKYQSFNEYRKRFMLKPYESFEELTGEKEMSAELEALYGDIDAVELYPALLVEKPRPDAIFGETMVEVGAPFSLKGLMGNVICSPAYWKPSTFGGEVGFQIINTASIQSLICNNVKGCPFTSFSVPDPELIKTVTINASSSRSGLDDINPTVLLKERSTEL

[5] = molecular target: T2, Prostaglandin G/H synthase 2 (Homo sapiens, UniProt P35354); test: Inhibition of human recombinant COX2 in cell-free system by enzyme immunoassay
T2 sequence (P35354 whole entry): T1 sequence (whole entry)

[6] = test system: RAW264.7; test: Inhibition of PGE2 production in LPS-induced mouse RAW264.7 cells at 3 uM; assay type: functional
[7] = test system: RAW264.7; test: Inhibition of PGE2 production in LPS-induced mouse RAW264.7 cells at 1 uM; assay type: functional

| Structure (SMILES) | inhibition at 10 µM [1] [%] | Activity [2] [µM] | other results |
| --- | --- | --- | --- |
| COC(=O)C(Sc1nc(Cl)nc(Nc2ccc(Oc3ccccc3)cc2)n1)c1ccccc1 (stereo not given) | 85.8 | > 10 |  |
| COC(=O)C(Sc1nc(Cl)nc(Nc2ccc(C(C)C)cc2)n1)c1cccc2ccccc12 (stereo not given) | 88.7 | > 10 |  |
| CCOC(=O)C(Sc1nc(Cl)nc(Nc2ccc(Cc3ccccc3)cc2)n1)c1cccc2ccccc12 (stereo not given) | 72.6 | > 10 |  |
| COC(=O)C(Sc1nc(Cl)nc(Nc2ccc(Oc3ccccc3)cc2)n1)c1cccc2ccccc12 (stereo not given) | 72.5 | > 10 |  |
| COC(=O)C(Sc1nc(Cl)nc(Nc2ccc(C(C)C)cc2)n1)c1ccccc1 (stereo not given) | 91.8 | > 10 | IC50 [3]: 5.76 µM; inhibition [4]: 31.8% |
| CCOC(=O)C(Sc1nc(Cl)nc(Nc2ccc(-c3ccccc3)cc2)n1)c1cccc2ccccc12 (stereo not given) | 78.6 | > 10 |  |
| CCOC(=O)C(Sc1nc(Cl)nc(Nc2ccc(C3CCCCC3)cc2)n1)c1cccc2ccccc12 (stereo not given) | 43.7 | > 10 |  |
| CC(C)c1ccc2c(c1)c(SC(C)(C)C)c(CC(C)(C)C(=O)O)n2Cc1ccc(Cl)cc1 |  |  | IC50 [5]: 58 µM |
| COC(=O)C(Sc1nc(C)nc(Nc2ccc(C(C)C)cc2)n1)c1ccccc1 (stereo not given) | 85.7 | > 10 |  |
| CS(=O)(=O)Nc1ccc([N+](=O)[O-])cc1OC1CCCCC1 [NS-398] |  |  | inhibition at 3 µM [6]: 99.4% |
| Cc1nc(Nc2ccc(C(C)C)cc2)nc(SC(C(N)=O)c2ccccc2)n1 (stereo not given) |  | < 10 | inhibition at 1 µM [7]: 26.5% |
| COC(=O)C(Sc1nc(Cl)nc(Nc2ccc(-c3ccccc3)cc2)n1)c1ccccc1 (stereo not given) | 82.7 | > 10 |  |
| O=C(O)C(Sc1nc(Cl)nc(Nc2ccc(-c3ccccc3)cc2)n1)c1cccc2ccccc12 (stereo not given) | 7.77 | > 10 |  |
| COC(=O)C(Sc1nc(Cl)nc(Nc2ccc(Cc3ccccc3)cc2)n1)c1ccccc1 (stereo not given) | 90.8 | > 10 | IC50 [3]: 5.52 µM; inhibition [4]: 0% |
